Values after ≈ are worked out from the molar mass of the structure shown.
Assays:
P. aeruginosa = assay: Preservative challenge test (European Pharmacopoeia 7.0, 5.1.3) in anionic emulsion with Dracorin CE; type: cell-based, Pseudomonas aeruginosa; details: pH 5.5
Protocol: (§1) The invention will be further described in the following on the basis of examples. The examples serve to illustrate the invention, without thereby restricting the scope of protection of the claims. For examples, 1 to 11 preservative challenge tests according to European Pharmacopoeia 7.0 (5.1.3. Efficacy of antimicrobial preservation) were used. For example 12, activities were determined by measuring minimum inhibitory concentrations (MIC values) according to DIN 58940. All numerical information relates to weight, unless stated otherwise.
(§2) Activity of Benzoic acid-3-hydroxypropylester (BAHP) against the microorganisms E. coli, P. aeruginosa, S. aureus, C. albicans and spores of A. brasiliensis was evaluated in an anionic emulsion with Dracorin CE as emulsifier. The pH value of the emulsion was 5.5.
(§3) Activity of Furoic acid-3-hydroxypropylester (FAHP) against the microorganisms E. coli, P. aeruginosa, S. aureus, C. albicans and spores of A. brasiliensis was evaluated in an anionic emulsion with Dracorin CE as emulsifier. The pH value of the emulsion was 5.5.
(§4) Activity of Anisic acid-3-hydroxypropylester (AAHP) against the microorganisms E. coli, P. aeruginosa, S. aureus, C. albicans and spores of A. brasiliensis was evaluated in an anionic emulsion with Dracorin CE as emulsifier. The pH value of the emulsion was 5.5.
as §2, with “Synergistic effects between” for “Activity of”, “(BAHP) and 1,2-Octanediol were determined. Activity of BAHP, 1,2-Octanediol and the combination of BAHP and 1,2-Octanediol” for “(BAHP)”

C. albicans = assay: as above; type: cell-based, Candida albicans; details: pH 5.5
Protocol: as §1, §2, §3, §4
as §2, with “Synergistic effects between” for “Activity of”, “(BAHP) and 1,2-Octanediol were determined. Activity of BAHP, 1,2-Octanediol and the combination of BAHP and 1,2-Octanediol” for “(BAHP)”

E. coli = assay: as above; type: cell-based, Escherichia coli; details: pH 5.5
Protocol: as §1, §2, §3, §4
as §2, with “Synergistic effects between” for “Activity of”, “(BAHP) and 1,2-Octanediol were determined. Activity of BAHP, 1,2-Octanediol and the combination of BAHP and 1,2-Octanediol” for “(BAHP)”

S. aureus = assay: as above; type: cell-based, Staphylococcus aureus; details: pH 5.5
Protocol: as §1, §2, §3, §4
as §2, with “Synergistic effects between” for “Activity of”, “(BAHP) and 1,2-Octanediol were determined. Activity of BAHP, 1,2-Octanediol and the combination of BAHP and 1,2-Octanediol” for “(BAHP)”

Staphylococcus aureus = assay: Minimum inhibitory concentration (MIC) according to DIN 58940; type: cell-based; details: for MIC: Staphylococcus aureus, read-out: MIC values (ppm) Staphylococcus aureus
Protocol: as §1
(§5) The activity of Benzoic acid-3-hydroxypropylester (BAHP), Furoic acid-3-hydroxypropylester (FAHP) and Anisic acid-3-hydroxypropylester (AAHP), Salicylic acid hydroxyethyl ester (SAHE) and Salicylic acid hydroxypropyl ester (SAHP) was determined against the microorganisms Staphylococcus aureus, Candida albicans, Aspergillus brasiliensis, Pseudomonas aeruginosa and Escherichia coli. The activity of N-Methylsalicylamid (MSA), Furoic acid methylester (FAME) and Salicylamide (SA) was determined against the microorganism Aspergillus brasiliensis.

Pseudomonas aeruginosa = assay: as above; type: cell-based; details: for MIC: Pseudomonas aeruginosa, read-out: MIC values (ppm) Pseudomonas aeruginosa
Protocol: as §1, §5

Escherichia coli = assay: as above; type: cell-based; details: for MIC: Escherichia coli, read-out: MIC values (ppm) Escherichia coli
Protocol: as §1, §5

Candida albicans = assay: as above; type: cell-based; details: for MIC values (ppm) Candida aibicans: DIN 58940; for MIC: Candida albicans, read-out: MIC values (ppm) Candida aibicans
Protocol: as §1, §5

Aspergillus brasiliensis = assay: as above; type: cell-based; details: for MIC: Aspergillus brasiliensis, read-out: MIC values (ppm) Aspergillus brasiliensis
Protocol: as §1, §5

[1] = test system: spores of A. brasiliensis; assay: Preservative challenge test (European Pharmacopoeia 7.0, 5.1.3) in anionic emulsion with Dracorin CE; type: cell-based, Aspergillus brasiliensis
Protocol: as §1, §2, §3, §4
Activity of N-Methylsalicylamid (MSA) against the microorganism A. brasiliensis was evaluated in an anionic emulsion with Dracorin CE as emulsifier. The pH value of the emulsion was 5.5.
Activity of Furoic acid methylester (FAME) against the microorganism A. brasiliensis was evaluated in an anionic emulsion with Dracorin CE as emulsifier. The pH value of the emulsion was 5.5.
Activity of Salicylamide (SA) against the microorganism A. brasiliensis was evaluated in an anionic emulsion with Dracorin CE as emulsifier. The pH value of the emulsion was 5.5.
Activity of Salicylic acid hydroxyethyl ester (SAHE) against the microorganism A. brasiliensis was evaluated in an anionic emulsion with Dracorin CE as emulsifier. The pH value of the emulsion was 5.5.
Activity of Salicylic acid hydroxypropyl ester (SAHP) against the microorganism A. brasiliensis was evaluated in an anionic emulsion with Dracorin CE as emulsifier. The pH value of the emulsion was 5.5.
Activity of Benzoic acid-3-hydroxypropylester (BAHP) against spores of A. brasiliensis was evaluated in an anionic emulsion with Dracorin CE as emulsifier. The pH value of the emulsion was 7.
Activity of Anisic acid-3-hydroxypropylester (AAHP) against spores of A. brasiliensis was evaluated in an anionic emulsion with Dracorin CE as emulsifier. The pH value of the emulsion was 7. […]

[2] = day 2, 0.75% in anionic emulsion
[3] = day 7, 0.75% in anionic emulsion
[4] = day 14, 0.75% in anionic emulsion
[5] = day 28, 0.75% in anionic emulsion
[6] = day 2, 1.0% in anionic emulsion
[7] = day 7, 1.0% in anionic emulsion
[8] = day 14, 1.0% in anionic emulsion
[9] = day 28, 1.0% in anionic emulsion
[10] = day 7, 1.0% in anionic emulsion, pH 5.5
[11] = day 14, 1.0% in anionic emulsion, pH 5.5
[12] = day 14, 1.0% in anionic emulsion, pH 7
[13] = day 28, 1.0% in anionic emulsion, pH 5.5
[14] = day 28, 1.0% in anionic emulsion, pH 7

SMILES | Colony counts (cfu/g formulation) (P. aeruginosa; [6]) | Colony counts (cfu/g formulation) (P. aeruginosa; [7]) | Colony counts (cfu/g formulation) (P. aeruginosa; [8]) | Colony counts (cfu/g formulation) (P. aeruginosa; [9]) | Colony counts (cfu/g formulation) (C. albicans; [8]) | Colony counts (cfu/g formulation) (C. albicans; [9]) | Colony counts (cfu/g formulation) [1, 11] [cfu/g formulation] | Colony counts (cfu/g formulation) [1, 13] [cfu/g formulation] | Colony counts (cfu/g formulation) (E. coli; [6]) | Colony counts (cfu/g formulation) (E. coli; [7]) | Colony counts (cfu/g formulation) (E. coli; [8]) | Colony counts (cfu/g formulation) (E. coli; [9]) | Colony counts (cfu/g formulation) (S. aureus; [6]) | Colony counts (cfu/g formulation) (S. aureus; [7]) | Colony counts (cfu/g formulation) (S. aureus; [8]) | Colony counts (cfu/g formulation) (S. aureus; [9]) | MIC (Staphylococcus aureus) [µg/mL] | MIC (Pseudomonas aeruginosa) [µg/mL] | MIC (Escherichia coli) [µg/mL] | MIC (Aspergillus brasiliensis) [µg/mL] | also measured
CCCCCCC(O)CO (stereo not shown) [1,2-Octanediol, reference compound] | – | – | – | – | – | – | – | – | – | – | – | – | – | – | – | – | – | – | – | – | Colony counts (cfu/g formulation) (P. aeruginosa; [2]): <10 cfu/g formulation; Colony counts (cfu/g formulation) (P. aeruginosa; [3]): <10 cfu/g formulation; Colony counts (cfu/g formulation) (P. aeruginosa; [4]): <10 cfu/g formulation; Colony counts (cfu/g formulation) (P. aeruginosa; [5]): <10 cfu/g formulation; Colony counts (cfu/g formulation) (C. albicans; [3]): <10 cfu/g formulation; Colony counts (cfu/g formulation) (C. albicans; [4]): <10 cfu/g formulation; Colony counts (cfu/g formulation) (C. albicans; [5]): <10 cfu/g formulation; Colony counts (cfu/g formulation) (E. coli; [2]): <10 cfu/g formulation; Colony counts (cfu/g formulation) (E. coli; [3]): <10 cfu/g formulation; Colony counts (cfu/g formulation) (E. coli; [4]): <10 cfu/g formulation; Colony counts (cfu/g formulation) (E. coli; [5]): <10 cfu/g formulation; Colony counts (cfu/g formulation) (S. aureus; [2]): <10 cfu/g formulation; Colony counts (cfu/g formulation) (S. aureus; [3]): <10 cfu/g formulation; Colony counts (cfu/g formulation) (S. aureus; [4]): <10 cfu/g formulation; Colony counts (cfu/g formulation) (S. aureus; [5]): <10 cfu/g formulation
COc1ccc(C(=O)OCCCO)cc1 [AAHP, Anisic acid-3-hydroxypropylester] | <10 | <10 | <10 | <10 | <10 | <10 | <10 | <10 | <10 | <10 | <10 | <10 | <10 | <10 | <10 | <10 | – | – | – | – | MIC values (ppm) Staphylococcus aureus (Staphylococcus aureus): 5000 ppm; MIC values (ppm) Pseudomonas aeruginosa (Pseudomonas aeruginosa): >5000 ppm; MIC values (ppm) Escherichia coli (Escherichia coli): 2500 ppm; MIC values (ppm) Candida aibicans (Candida albicans): 2500 ppm; MIC values (ppm) Aspergillus brasiliensis (Aspergillus brasiliensis): 1000 ppm; Colony counts (cfu/g formulation) (C. albicans; [6]): <10 cfu/g formulation; Colony counts (cfu/g formulation) (C. albicans; [7]): <10 cfu/g formulation; Colony counts (cfu/g formulation) [1, 10]: <10 cfu/g formulation; Colony counts (cfu/g formulation) ([1]; day 7, 1.0% in anionic emulsion, pH 7): <10 cfu/g formulation; Colony counts (cfu/g formulation) [1, 12]: <10 cfu/g formulation; Colony counts (cfu/g formulation) [1, 14]: <10 cfu/g formulation
O=C(OCCCO)c1ccccc1 [BAHP, Benzoic acid-3-hydroxypropylester] | <10 | <10 | <10 | <10 | <10 | <10 | <10 | <10 | <10 | <10 | <10 | <10 | <10 | <10 | <10 | <10 | 5000 (≈ 27.7 mM) | > 5000 | 2000 (≈ 11.1 mM) | 2500 (≈ 13.9 mM) | MIC (Candida albicans): 2500 µg/mL (≈ 13.9 mM); Colony counts (cfu/g formulation) (P. aeruginosa; [2]): <10 cfu/g formulation; Colony counts (cfu/g formulation) (P. aeruginosa; [3]): <10 cfu/g formulation; Colony counts (cfu/g formulation) (P. aeruginosa; [4]): <10 cfu/g formulation; Colony counts (cfu/g formulation) (P. aeruginosa; [5]): <10 cfu/g formulation; Colony counts (cfu/g formulation) (C. albicans; [3]): <10 cfu/g formulation; Colony counts (cfu/g formulation) (C. albicans; [7]): <10 cfu/g formulation; Colony counts (cfu/g formulation) (C. albicans; [4]): <10 cfu/g formulation; Colony counts (cfu/g formulation) (C. albicans; [5]): <10 cfu/g formulation; Colony counts (cfu/g formulation) [1, 12]: <10 cfu/g formulation; Colony counts (cfu/g formulation) [1, 14]: <10 cfu/g formulation; Colony counts (cfu/g formulation) (E. coli; [2]): <10 cfu/g formulation; Colony counts (cfu/g formulation) (E. coli; [3]): <10 cfu/g formulation; Colony counts (cfu/g formulation) (E. coli; [4]): <10 cfu/g formulation; Colony counts (cfu/g formulation) (E. coli; [5]): <10 cfu/g formulation; Colony counts (cfu/g formulation) (S. aureus; [3]): <10 cfu/g formulation; Colony counts (cfu/g formulation) (S. aureus; [4]): <10 cfu/g formulation; Colony counts (cfu/g formulation) (S. aureus; [5]): <10 cfu/g formulation
O=C(OCCCO)c1ccco1 [FAHP, Furoic acid-3-hydroxypropylester] | <10 | <10 | <10 | <10 | <10 | <10 | – | – | <10 | <10 | <10 | <10 | <10 | <10 | <10 | <10 | – | – | – | – | MIC values (ppm) Staphylococcus aureus (Staphylococcus aureus): >5000 ppm; MIC values (ppm) Pseudomonas aeruginosa (Pseudomonas aeruginosa): >5000 ppm; MIC values (ppm) Escherichia coli (Escherichia coli): >5000 ppm; MIC values (ppm) Candida aibicans (Candida albicans): >5000 ppm; MIC values (ppm) Aspergillus brasiliensis (Aspergillus brasiliensis): 5000 ppm
COC(=O)c1ccco1 [FAME, Furoic acid methylester] | – | – | – | – | – | – | – | <10 | – | – | – | – | – | – | – | – | – | – | – | > 1000 | –
CNC(=O)c1ccccc1O [MSA, N-Methylsalicylamid] | – | – | – | – | – | – | <10 | <10 | – | – | – | – | – | – | – | – | – | – | – | 1000 (≈ 6.62 mM) | Colony counts (cfu/g formulation) [1, 10]: <10 cfu/g formulation
NC(=O)c1ccccc1O [SA, Salicylamide] | – | – | – | – | – | – | 2.0E+03 | <10 | – | – | – | – | – | – | – | – | – | – | – | 2500 (≈ 18.2 mM) | –
O=C(OCCO)c1ccccc1O [SAHE, Salicylic acid hydroxyethyl ester] | – | – | – | – | – | – | – | – | – | – | – | – | – | – | – | – | > 1000 | > 1000 | 2000 (≈ 11 mM) | 2500 (≈ 13.7 mM) | MIC (Candida albicans): 2500 µg/mL (≈ 13.7 mM)
O=C(OCCCO)c1ccccc1O [SAHP, Salicylic acid hydroxypropyl ester] | – | – | – | – | – | – | – | – | – | – | – | – | – | – | – | – | 1000 (≈ 5.1 mM) | > 1000 | 2500 (≈ 12.7 mM) | 1000 (≈ 5.1 mM) | MIC (Candida albicans): 2500 µg/mL (≈ 12.7 mM)

Reference: US11116710B2, “Antimicrobial compositions” (SYMRISE AG, priority 2016, dated 2021)
